Test results from patent publication US20040138237A1, “Novel injectable depot formulations” (Pfizer Inc, priority 2002, published 2004).

Assay: Solubilization of ziprasidone mesylate in concentrated aqueous SBECD solution (concentration, HPLC potency)
Format: physicochemical
Description: This particular example employs a high concentration of SBECD to form an aqueous solution of ziprasidone at about 80 mgA/ml with about 56% SBECD. To facilitate drug dissolution, a pre-weighed amount of SBECD (gram weight SBECD equivalent to ml of depot formulation being prepared) was dissolved in water by heating in a water bath at 50° C. Ziprasidone mesylate was added in about 50 mg increments while heat was supplied to maintain the system at 50-60° C. A total of 572.99 mg Ziprasidone mesylate was added to 3 ml of 100% SBECD solution resulting in formation of 140 mgA/ml (191 mg/ml) clear viscous solution. The above solution was cooled to room temperature, and the solution remained clear for 2 weeks. Due to volume expansion, the final concentration of ziprasidone was about 80 mgA/ml with 56% cyclodextrin.
The stock solution was prepared using the same method as described above, however due to the higher solution volume (20 ml), the dissolution time was much longer (over 4 hours) even though micronized ziprasidone mesylate was used. During compounding, significant volume expansion was noted. To correct for the volume expansion, the specific gravity of the solution was determined to be 1.188 gm/ml. The volume of water used to prepare this solution was 20 ml, however, the final volume of the solution was 36.6 ml, and the weight of the solution was 43.5 gm. Therefore, taking into consideration 83% volume expansion, the corrected concentrations of drug and SBECD in this solution are 77 mgA/ml and 55% w/v, respectively.
The extent of solubilization was further confirmed by preparation of 82 mgA/ml ziprasidone solution with 59% SBECD using the same method. Viscosity was greater than 160 cps.

SMILES: O=C1Cc2cc(CCN3CCN(c4nsc5ccccc45)CC3)c(Cl)cc2N1 [ziprasidone]
- corrected concentration of drug in solution (55% w/v SBECD, corrected for 83% volume expansion, scaled-up stock solution): 77 mgA/ml
- potency of solution by HPLC potency method (scaled-up stock solution, 55% w/v SBECD): 75 mgA/ml
- final concentration of ziprasidone in clear aqueous solution (with 56% cyclodextrin (SBECD), after volume expansion): about 80 mgA/ml
